Consider one substance from US9642815B2, “Biocompatible graphene quantum dots for drug delivery and bioimaging applications” (Council of Scientific and Industrial Research, priority 2013, dated 2017).

Entries after “also recorded” stand apart in the source; their conditions may differ.

This assay concerns ROS. Put plainly: Cell free ROS assay with H2O2 and H2DCF indicator. The conditions noted are these: free PEG added to C-GQDs (FIG. 18B). How it is done: The samples (C-GQDs, H-GQDs, S-GQDs and P-GQDs) were incubated with H2O2 in 10% fetal bovine serum (FBS) solution at 37° C. Chemically hydrolyzed 2,7-dichlorodihydrofluorescein diacetate (H2DCF-DA), yielding H2DCF, was used as a fluorescent indicator of ROS production. The increase in ROS over 90 min with 10 μM and 20 μM H2O2 in the presence and absence of GQDs were monitored. In the case of C-GQDs and H-GQDs incubated with 20 μM H2O2, the ROS production increased ˜3 and ˜4 times respectively (FIG. 7A). […] Thus, confirming again the ROS quenching ability of PEG. […] The H-GQDs produced more ROS than C-GQDs, likely because of more free-radical-susceptible hydroxyl groups on the surface generated by the hydrothermal treatment.

On to polyethylene glycol [free PEG], for which the “ROS quenching by free PEG in solution along with C-GQD” value is listed as “did not quench the ROS produced in solution; also recorded: No significant quenching”.
